Measurements published in ChEMBL document CHEMBL4811240, “Discovery of N-substituted sulfamoylbenzamide derivatives as novel inhibitors of STAT3 signaling pathway based on Niclosamide” (Eur J Med Chem, 2021).
Activity calls are given as the source filed them. The rule behind the calls is not given here.

Columns and labels:
MDA-MB-231 [1] = experiment: Antiproliferative activity against human MDA-MB-231 cells assessed as inhibition of cell viability at 10 uM after 48 hrs by MTT assay relative to control; format: functional
[2] = Lipophilicity, log P of the compound; format: physicochemical; conditions: octanol/water
[3] = target: Signal transducer and activator of transcription 3 (Homo sapiens) (UniProt P40763); experiment: Inhibition of STAT3 promoter activity in human MDA-MB-231 cells at 1 uM incubated for 24 hrs by dual luciferase reporter assay; format: cell-based
MDA-MB-231 [4] = experiment: Antiproliferative activity against human MDA-MB-231 cells assessed as inhibition of cell viability after 48 hrs by MTT assay; format: functional, cell-based; conditions: MDA-MB-231, 48 h
MDA-MB-231 [5] = experiment: Inhibition of human MDA-MB-231 cells migration a 1000 nM after 24 hrs by crystal violet staining based transwell migration assay; format: functional, cell-based
L3.6pl = experiment: Antiproliferative activity against human L3.6 cells assessed as inhibition of cell viability at 10 uM after 48 hrs by MTT assay relative to control; format: functional
HCT-116 [6] = experiment: Antiproliferative activity against human HCT116 cells assessed as inhibition of cell viability at 10 uM after 48 hrs by MTT assay relative to control; format: functional
SW480 [7] = experiment: Antiproliferative activity against human SW480 cells assessed as inhibition of cell viability at 10 uM after 48 hrs by MTT assay relative to control; format: functional
MDA-MB-231 [8] = experiment: Induction of apoptosis in human MDA-MB-231 cells assessed as apoptotic cells at 10 uM measured after 24 hrs by annexinV-FITC/propidium iodide staining based flow cytometry analysis (reference value: 2.49%); format: functional
SW480 [9] = experiment: Antiproliferative activity against human SW480 cells assessed as inhibition of cell viability after 48 hrs by MTT assay; format: functional, cell-based; conditions: SW480, 48 h
HCT-116 [10] = experiment: Antiproliferative activity against human HCT-116 cells assessed as inhibition of cell viability after 48 hrs by MTT assay; format: functional, cell-based; conditions: HCT-116, 48 h

Sequence of Signal transducer and activator of transcription 3 (Homo sapiens) (P40763 whole entry): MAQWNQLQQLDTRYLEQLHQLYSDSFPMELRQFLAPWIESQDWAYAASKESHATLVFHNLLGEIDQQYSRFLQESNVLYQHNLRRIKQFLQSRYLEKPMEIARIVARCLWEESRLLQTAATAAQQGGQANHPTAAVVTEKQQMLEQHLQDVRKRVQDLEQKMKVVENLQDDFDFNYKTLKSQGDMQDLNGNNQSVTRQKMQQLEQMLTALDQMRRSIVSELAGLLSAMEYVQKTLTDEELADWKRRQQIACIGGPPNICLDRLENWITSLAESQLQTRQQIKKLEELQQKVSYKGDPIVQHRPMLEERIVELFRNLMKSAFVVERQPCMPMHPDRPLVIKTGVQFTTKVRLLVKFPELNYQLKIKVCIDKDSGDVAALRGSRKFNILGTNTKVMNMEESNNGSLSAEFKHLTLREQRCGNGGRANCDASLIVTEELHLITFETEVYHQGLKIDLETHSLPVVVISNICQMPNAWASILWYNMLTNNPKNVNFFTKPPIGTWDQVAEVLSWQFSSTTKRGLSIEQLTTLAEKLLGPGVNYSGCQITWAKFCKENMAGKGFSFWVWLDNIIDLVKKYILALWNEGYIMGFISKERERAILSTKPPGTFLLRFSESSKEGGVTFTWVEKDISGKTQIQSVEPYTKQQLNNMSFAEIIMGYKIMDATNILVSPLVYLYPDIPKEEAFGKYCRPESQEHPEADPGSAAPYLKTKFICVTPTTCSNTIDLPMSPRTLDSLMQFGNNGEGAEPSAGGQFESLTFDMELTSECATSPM

| Compound | inhibition at 10 µM (MDA-MB-231 [1]) [%] | logP [2] | inhibition [3] [%] | IC50 (MDA-MB-231 [4]) [µM] | inhibition (MDA-MB-231 [5]) | inhibition at 10 µM (L3.6pl) [%] | inhibition at 10 µM (HCT-116 [6]) [%] | inhibition at 10 µM (SW480 [7]) [%] | Activity (MDA-MB-231 [8]) [%] | IC50 (SW480 [9]) [µM] | IC50 (HCT-116 [10]) [µM] |
| --- | --- | --- | --- | --- | --- | --- | --- | --- | --- | --- | --- |
| O=C(Nc1ccc([N+](=O)[O-])cc1Cl)c1cc(Cl)ccc1O [NICLOSAMIDE] | 91.5 | 3.17 | 88.2 | 0.8 | Active | 66.2 | 73.8 | 76.8 | 19.91 |  |  |
| NS(=O)(=O)c1cc(C(=O)Nc2ccc(C(F)(F)F)cc2)ccc1Cl | 27.3 | 2.76 |  | 7.32 |  | 29.6 | 55.4 | 47.4 |  | > 20 | 10.8 |
| COc1cc(NC(=O)c2cccc(S(N)(=O)=O)c2)c(C(=O)O)cc1OC | 52.1 | 0.37 |  | 17.9 |  | 23.3 | 22.1 | 22.9 |  | > 20 | > 20 |
| COc1cccc(CNC(=O)c2ccc(Cl)c(S(N)(=O)=O)c2)c1 | 36.3 | 1.34 |  | > 20 |  | 19.4 | 64.2 | 37.7 |  | > 20 | 18.6 |
| NS(=O)(=O)c1cc(C(=O)Nc2ccc([N+](=O)[O-])cc2Cl)ccc1Cl | 56.3 | 2.73 |  | 14.3 |  | 12.3 | 49.5 | 38.2 |  | > 20 | 19.1 |
| COc1ccccc1CNC(=O)c1ccc(Cl)c(S(N)(=O)=O)c1 | 35 | 1.77 |  | > 20 |  | 17.3 | 50 | 42.8 |  | > 20 | > 20 |
